Source: PubChem BioAssay AID1963831 (Molecular Pharmacology Branch, DTP, NCI, 2024)
pIC50: −log10 of the molar value.

Test system: 889142-216-R-J1-PDC complex spheroid viability
Test: Anticancer human tumor 889142-216-R-J1-PDC patient-derived bladder carcinoma cell line growth inhibition [POLQ]
Details: for pIC50: curve of first compound; for viability, T/C: stronger effect = lower value
In short: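 Three-cell-type spheroids modelling solid tumor plus stroma served as the readout system; POL inhibitors were tested individually and in combination, concentration ranges set by clinical Cmax where known.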

[1] = second compound 0.0316 µM, first compound 0.0316 µM
[2] = second compound 0.0316 µM, first compound 0.1 µM
[3] = second compound 0.0316 µM, first compound 0.316 µM
[4] = second compound 0.0316 µM, first compound 1 µM
[5] = second compound 0.0316 µM, first compound 3.16 µM
[6] = second compound 0.0316 µM, first compound 10 µM
[7] = second compound 0.1 µM, first compound 0.0316 µM
[8] = second compound 0.1 µM, first compound 0.1 µM
[9] = second compound 0.1 µM, first compound 0.316 µM
[10] = second compound 0.1 µM, first compound 1 µM
[11] = second compound 0.1 µM, first compound 3.16 µM
[12] = second compound 0.1 µM, first compound 10 µM
[13] = second compound 0.316 µM, first compound 0.0316 µM
[14] = second compound 0.316 µM, first compound 0.1 µM
[15] = second compound 0.316 µM, first compound 0.316 µM
[16] = second compound 0.316 µM, first compound 1 µM
[17] = second compound 0.316 µM, first compound 3.16 µM
[18] = second compound 0.316 µM, first compound 10 µM
[19] = second compound 1 µM, first compound 0.0316 µM
[20] = second compound 1 µM, first compound 0.1 µM
[21] = second compound 1 µM, first compound 0.316 µM
[22] = second compound 1 µM, first compound 1 µM
[23] = second compound 1 µM, first compound 3.16 µM
[24] = second compound 1 µM, first compound 10 µM
[25] = second compound 3.16 µM, first compound 0.0316 µM
[26] = second compound 3.16 µM, first compound 0.1 µM
[27] = second compound 3.16 µM, first compound 0.316 µM
[28] = second compound 3.16 µM, first compound 1 µM
[29] = second compound 3.16 µM, first compound 3.16 µM
[30] = second compound 3.16 µM, first compound 10 µM
[31] = second compound 10 µM, first compound 0.0316 µM
[32] = second compound 10 µM, first compound 0.1 µM
[33] = second compound 10 µM, first compound 0.316 µM
[34] = second compound 10 µM, first compound 1 µM
[35] = second compound 10 µM, first compound 3.16 µM
[36] = second compound 10 µM, first compound 10 µM
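Also: spheroids exposed to compounds for seven days.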
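For viability, T/C in this document: 100% = DMSO vehicle control viability.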

With `COc1ccc([C@@H](O)c2cc(-c3ncnc4cc(N5CCOCC5)ccc34)c(F)cc2Cl)nn1` + COC1C(OC(N)=O)C(O)C(Oc2ccc3c(O)c(NC(=O)c4ccc(O)c(CC=C(C)C)c4)c(=O)oc3c2C)OC1(C)C the pIC50 (second compound 0.0316 µM) was 5.37, the pIC50 (second compound 0.1 µM) was under 5.00 and the pIC50 (second compound 0.316 µM) was 5.20. The pIC50 (second compound 1 µM) was 5.54, the pIC50 (second compound 3.16 µM) was 5.44 and the pIC50 (second compound 10 µM) was 5.34. For the same compound, the viability, T/C [1] was 88.8%, the viability, T/C [2] was 88.3% and the viability, T/C [3] was 63.9%. For the same compound, the viability, T/C [4] was 63%, the viability, T/C [5] was 55.6% and the viability, T/C [6] was 41.5%. For the same compound, the viability, T/C [7] was 104%, the viability, T/C [8] was 125% and the viability, T/C [9] was 76.2%. For the same compound, the viability, T/C [10] was 62.7%, the viability, T/C [11] was 55.7% and the viability, T/C [12] was 35.9%. For the same compound, the viability, T/C [13] was 92.2%, the viability, T/C [14] was 104% and the viability, T/C [15] was 87%. The viability, T/C [16] was 79.1%, the viability, T/C [17] was 63.4% and the viability, T/C [18] was 41.4%. For the same compound, the viability, T/C [19] was 90.3%, the viability, T/C [20] was 112% and the viability, T/C [21] was 86.7%. The viability, T/C [22] was 59.8%, the viability, T/C [23] was 60.3% and the viability, T/C [24] was 37.3%. It also gave a viability, T/C [25] of 81.3%, a viability, T/C [26] of 120% and a viability, T/C [27] of 77.6%. The viability, T/C [28] was 66.9%, the viability, T/C [29] was 56.9% and the viability, T/C [30] was 39.8%. The viability, T/C [31] was 98.2%, the viability, T/C [32] was 82.1% and the viability, T/C [33] was 104%. The viability, T/C [34] was 74.8%, the viability, T/C [35] was 59.6% and the viability, T/C [36] was 32.9%.
`CCc1cc2c(N3CCc4c(cc(Cn5ccnc5)cc4-c4cn(C)nc4C(F)(F)F)C3=O)ccnc2c(OC)n1` + COC1C(OC(N)=O)C(O)C(Oc2ccc3c(O)c(NC(=O)c4ccc(O)c(CC=C(C)C)c4)c(=O)oc3c2C)OC1(C)C was tested, and the pIC50 (second compound 0.0316 µM) was under 5.00, the pIC50 (second compound 0.1 µM) was under 5.00 and the pIC50 (second compound 0.316 µM) was under 5.00. It also gave a pIC50 (second compound 1 µM) of under 5.00, a pIC50 (second compound 3.16 µM) of under 5.00 and a pIC50 (second compound 10 µM) of under 5.00. The viability, T/C [1] was 120%, the viability, T/C [2] was 109% and the viability, T/C [3] was 119%. For the same compound, the viability, T/C [4] was 95.5%, the viability, T/C [5] was 69.1% and the viability, T/C [6] was 83%. It also gave a viability, T/C [7] of 101%, a viability, T/C [8] of 117% and a viability, T/C [9] of 98.3%. The viability, T/C [10] was 111%, the viability, T/C [11] was 105% and the viability, T/C [12] was 62%. For the same compound, the viability, T/C [13] was 105%, the viability, T/C [14] was 106% and the viability, T/C [15] was 102%. For the same compound, the viability, T/C [16] was 115%, the viability, T/C [17] was 96.1% and the viability, T/C [18] was 64.3%. The viability, T/C [19] was 112%, the viability, T/C [20] was 130% and the viability, T/C [21] was 107%. It also gave a viability, T/C [22] of 102%, a viability, T/C [23] of 83.9% and a viability, T/C [24] of 77.7%. It also gave a viability, T/C [25] of 95.6%, a viability, T/C [26] of 106% and a viability, T/C [27] of 117%. The viability, T/C [28] was 94.2%, the viability, T/C [29] was 95% and the viability, T/C [30] was 77.9%. For the same compound, the viability, T/C [31] was 122%, the viability, T/C [32] was 103% and the viability, T/C [33] was 112%. It also gave a viability, T/C [34] of 109%, a viability, T/C [35] of 91.6% and a viability, T/C [36] of 67.3%.
